Measurements as given in patent publication US11649246B2, “Salts of 4-amino-N-(l-((3-chloro-2-fluorophenyl)amino)-6-methylisoquinolin-5-yl)thieno[3,2-D]pyrimidine-7-carboxamide, and crystalline forms thereof” (Hanmi Pharm. Co., Ltd., priority 2017, dated 2023).
Where a name gives a salt, the structure may show the parent alone.

What was measured:
Type in all cases: physicochemical
[1] = Water content of Form VI after humidity exposure (conversion to Form I)
Protocol: Crystalline Form VI was converted to Form I by two methods. In a first method, Form VI was exposed to a relative humidity of 60% at 25° C. In a second method, Form VI was exposed to a relative humidity of 20% at 21° C.

[2] = Hygroscopicity / water content at 25° C. and 75% RH; details: for water content after hygroscopicity test: 25° C. and 75% RH; for Water Content (%): salt as prepared, before humidity exposure
Protocol: Various salt forms of Formula (I) were prepared from Formula (I) free base and characterized by water solubility, PXRD, DSC, DVS and hygroscopicity.

pH of aqueous solution = details: room temperature, Form I
Protocol: Aqueous solution pH was measured by preparing 0.01%, 0.1% and 1% aqueous solutions of Formula (I) bis-hydrochloride and then shaking the solution for 30 minutes at room temperature followed by filtration. The pH of the filtered aqueous solution was measured with a S2K713 Pocket pH meter (ISFETCOM, Japan) according to the method of the Korean Pharmacopoeia.

[3] = Hygroscopicity by dynamic vapor sorption (DVS); details: 25°, Form I
Protocol: Dynamic vapor sorption (DVS) analysis was performed in a DVS advantage (Surface measurement system, United Kingdom) analyzer at 25° C. with a relative humidity of 0% to 90%. A sample in an amount of 10 mg was placed into a wire-mesh vapor sorption balance pan and then attached to a DVS advantage dynamic vapor sorption balance via surface measurement systems. […] Upon completion of the sorption cycle, the sample was dried using the same process while maintaining a relative humidity of 0%. The changes in the sample weight during the adsorption/desorption cycle (repeated 3 times) were recorded and the hygroscopicity of the sample was measured. DVS isotherm diagrams are presented in FIGS. 1, 3, 6, 10, 13, 16 and 19 where Target PP (%) refers to relative humidity, “SORP” refers to adsorption and “DESORP” refers to desorption.
Hygroscopicity was measured by DVS where the DVS curve for Formula (I) bis-hydrochloride was recorded in a DVS Advantage I analyzer (SMS, United Kingdom). The DVS was operated over 3 cycles for measurement of the surface adsorption effects of water, from 0% RH to 90% RH at 25°.

[4] = Salt screening: solubility by HPLC according to KP, USP and EP general chapters; details: water, Example 1B salts
Protocol: For each Example 1B salt, a mixture of 40 mL (20 v/w) of a suitable solvent and 2 g Formula (I) free base was formed with agitation at room temperature. The indicated acid (2.2 eq.) was added to the mixture and salt formation was monitored by visual check. The resulting solid bis-acid salt was stirred for 24 hr at room temperature then filtered, and washed with a suitable solvent.
The water content, solubility in water (mg/mL), appearance, salt yield (%) and PXRD results for each of the salts of Example 1B are summarized in Table 4 where “MsOH” refers to methane sulfonic acid; “BsOH” refers to benzenesulfonic acid; “OW” refers to off-white; “W” refers to white; “Cryst” refers to crystalline; and “Amorph” refers to amorphous. Solubility was measured by HPLC according to KP, USP and EP general chapters.

[5] = Solubility of bis-hydrochloride Form I by HPLC test and observation test
Protocol: Solubility was measured by HPLC according to KP, USP and EP general chapters. […] The results of solubility were same between HPLC test and observation test.

[6] = Dissociation constant (pKa), GLpKa method, Sirius T3; details: as an aqueous solution, calculated by extrapolation
Protocol: Based on these pKa values, Formula (I) is believed to be weakly basic compound.
The dissociation, pKa, was measured with a T3 (Sirius Analytical Instrument Ltd., UK). About 1 mg of Formula (I) bis-hydrochloride was transferred to a GLpKa beaker, dissolved with 43% to 53% MDM solution (ISA Water/MeOH/ACN/p-Dioxane=40/20/20/20, Sirius), adjusted to pH 1.8 with 0.5 N HCl, and titrated up to pH 12.2 with 0.5 N KOH. The pKa as an aqueous solution was calculated by extrapolation.

[7] = Partition / distribution coefficient octanol-water (Sirius T3); details: for distributed ratio in octanol phase to water phase: ratio to 1
Protocol: The partition coefficient, Log P, was measured with a T3 (Sirius Analytical Instrument Ltd., UK). About 1 mg of Formula (I) bis-hydrochloride was added to a 15 mL GLpKa beaker, dissolved with octanol/150 mM KCl, adjusted to pH 1.8 with 0.5 N HCl, and titrated up to pH 12.2 with 0.5 N KOH. The partition coefficient of the octanol-water system was determined by correcting the difference between titration curves of the blank from the titration curve, by inserting the value of the dissociation constant measured previously.

[8] = Water solubility of Formula (I) free base
Protocol: Formula (I) free base is poorly soluble in water with a solubility of less than 0.4 μg/mL. Salt forms of free base compounds may result in improved water solubility.

[9] = Stress stability test at 60° C.; details: for physicochemical stability (summary in words): up to 4 weeks
Protocol: In order to compare physicochemical stability among the crystalline form prepared in Example 3 (crystalline Formula (I) bis-hydrochloride Form I) and 16 (Formula (I) crystalline free base), and the amorphous form prepared in Comparative Example 1, a stress stability test was conducted by storing samples at 60° C., for different periods of time up to 4 weeks.

Question: Which water content ([1]; after exposure at 21° C. and 20% RH for 3 hours) does the source give for `Cc1ccc2c(Nc3cccc(Cl)c3F)nccc2c1NC(=O)c1csc2c(N)ncnc12` [Form VI, 4-amino-N-(1-((3-chloro-2-fluorophenyl)amino)-6-methylisoquinolin-5-yl)thieno[3,2-d]pyrimidine-7-carboxamide] here?
Answer: 8.0%

Question: And the water content ([1]; after exposure at 21° C. and 20% RH for 6 hours)?
Answer: 10.4%

Question: What about the water content ([1]; after exposure at 21° C. and 20% RH for 5 days) of the same compound?
Answer: 10.1%

Question: What about the water content ([1]; after exposure at 25° C. and 60% RH) of the same compound?
Answer: 11.3%

Question: With `Cc1ccc2c(Nc3cccc(Cl)c3F)nccc2c1NC(=O)c1csc2c(N)ncnc12` [Formula (I) bis-hydrochloride salt, 4-amino-N-(1-((3-chloro-2-fluorophenyl)amino)-6-methylisoquinolin-5-yl)thieno[3,2-d]pyrimidine-7-carboxamide] as the compound, how does the “water content after hygroscopicity test” value [2] read?
Answer: 11.7%

Question: And the “Water Content (%)” value [2]?
Answer: 6.2%

Question: And the “Water Content (%)” value ([2]; listed as HCl)?
Answer: 6.2%

Question: What about the “pH of aqueous solution” value (pH of aqueous solution; 0.1 mg/mL (0.01%) solution) of the same compound?
Answer: 3.9

Question: And the “pH of aqueous solution” value (pH of aqueous solution; 1 mg/mL (0.1%) solution)?
Answer: 2.6

Question: What about the “pH of aqueous solution” value (pH of aqueous solution; 10 mg/mL (1%) solution) of the same compound?
Answer: 1.8

Question: What about the “water absorption (DVS)” value ([3]; from 0% RH to 20% RH) of the same compound?
Answer: about 9.4%

Question: What about the “water absorption (DVS)” value ([3]; from 0% RH to 90% RH) of the same compound?
Answer: about 14.1%

Question: What about the “water desorption (DVS)” value ([3]; from 10% RH to ~0% RH) of the same compound?
Answer: about 8.9%

Question: What about the “water absorption (DVS), increased to” value ([3]; from 20% RH to 90% RH) of the same compound?
Answer: 14.1%

Question: What about the “water desorption (DVS)” value ([3]; from 90% RH to 10% RH) of the same compound?
Answer: about 5.2%

Question: And the “H2O Solubility” value ([4]; listed as HCl)?
Answer: 0.12 mg/mL

Question: And the “Solubility Observation” value ([5]; ACN)?
Answer: practically in soluble

Question: And the “Solubility Observation” value ([5]; DMSO)?
Answer: freely soluble

Question: And the “Solubility Observation” value ([5]; Dichloromethane)?
Answer: practically in soluble

Question: What about the “Solubility Observation” value ([5]; Ethanol) of the same compound?
Answer: very slightly soluble

Question: What about the “Solubility Observation” value ([5]; Ethyl acetate) of the same compound?
Answer: practically in soluble

Question: What about the “Solubility Observation” value ([5]; Ethyl ether) of the same compound?
Answer: practically in soluble

Question: And the “Solubility Observation” value ([5]; Methanol)?
Answer: sparingly soluble

Question: What about the “Solubility Observation” value ([5]; Water) of the same compound?
Answer: practically insoluble

Question: And the “Solubility Observation” value ([5]; buffer over pH 3.0)?
Answer: practically insoluble

Question: What about the “Solubility Observation” value ([5]; n-Hexane) of the same compound?
Answer: practically in soluble

Question: What about the “Solubility Observation” value ([5]; pH 1.2 buffer) of the same compound?
Answer: very slightly soluble

Question: And the “Solubility Observation” value ([5]; pH 2.0 buffer)?
Answer: very slightly soluble

Question: And the pKa1 [6]?
Answer: 3.86

Question: And the pKa2 [6]?
Answer: 4.73

Question: And the pKa3 [6]?
Answer: 10.30

Question: What about the pKa3 ([6]; listed as Formula (I) bis-hydrochloride) of the same compound?
Answer: 10.30

Question: What about the “distributed ratio in octanol phase to water phase” value ([7]; neutral state at pH 11 or higher) of the same compound?
Answer: about 20,000

Question: What about the logP ([7]; octanol/water (octanol/150 mM KCl), neutral state at pH 11 or higher) of the same compound?
Answer: 4.33

Question: What about the logD ([7]; octanol/water, pH 7.4) of the same compound?
Answer: 5.24

Question: And the “distributed ratio in octanol phase to water phase” value ([7]; pH 7.4)?
Answer: about 200,000

Question: For `Cc1ccc2c(Nc3cccc(Cl)c3F)nccc2c1NC(=O)c1csc2c(N)ncnc12` [Formula (I) free base, 4-amino-N-(1-((3-chloro-2-fluorophenyl)amino)-6-methylisoquinolin-5-yl)thieno[3,2-d]pyrimidine-7-carboxamide], which solubility [8] is on record?
Answer: < 0.0004 mg/mL

Question: Which “Purity(%) (A % by HPLC)” value ([9]; 2 weeks) does the source give for `Cc1ccc2c(Nc3cccc(Cl)c3F)nccc2c1NC(=O)c1csc2c(N)ncnc12` [Example 16, 4-amino-N-(1-((3-chloro-2-fluorophenyl)amino)-6-methylisoquinolin-5-yl)thieno[3,2-d]pyrimidine-7-carboxamide] here?
Answer: 99.7%

Question: What about the “Total impurities(%) (A % by HPLC)” value ([9]; 2 weeks) of the same compound?
Answer: 0.29%

Question: What about the “Purity(%) (A % by HPLC)” value ([9]; 7 days) of the same compound?
Answer: 99.7%

Question: And the “Total impurities(%) (A % by HPLC)” value ([9]; 7 days)?
Answer: 0.29%

Question: And the “Purity(%) (A % by HPLC)” value ([9]; Initial)?
Answer: 99.7%

Question: What about the “Total impurities(%) (A % by HPLC)” value ([9]; Initial) of the same compound?
Answer: 0.29%

Question: What about the “physicochemical stability (summary in words)” value ([9]; listed as crystalline form of the free base) of the same compound?
Answer: remarkably superior stability over the amorphous form

Question: Which “Water Content (%)” value [2] does the source give for `Cc1ccc2c(Nc3cccc(Cl)c3F)nccc2c1NC(=O)c1csc2c(N)ncnc12` [HBr, 4-amino-N-(1-((3-chloro-2-fluorophenyl)amino)-6-methylisoquinolin-5-yl)thieno[3,2-d]pyrimidine-7-carboxamide] here?
Answer: 2.9%

Question: What about the “H2O Solubility” value [4] of the same compound?
Answer: 0.05 mg/mL

Question: For `Cc1ccc2c(Nc3cccc(Cl)c3F)nccc2c1NC(=O)c1csc2c(N)ncnc12` [BsOH, 4-amino-N-(1-((3-chloro-2-fluorophenyl)amino)-6-methylisoquinolin-5-yl)thieno[3,2-d]pyrimidine-7-carboxamide], which “Water Content (%)” value [2] is on record?
Answer: 0.9%

Question: And the “H2O Solubility” value [4]?
Answer: 0.03 mg/mL

Question: What does the source list for `Cc1ccc2c(Nc3cccc(Cl)c3F)nccc2c1NC(=O)c1csc2c(N)ncnc12` [MsOH, 4-amino-N-(1-((3-chloro-2-fluorophenyl)amino)-6-methylisoquinolin-5-yl)thieno[3,2-d]pyrimidine-7-carboxamide]?
Answer: Water Content (%) [2]: 2.1%; H2O Solubility [4]: 0.05 mg/mL

Question: Which “water content after hygroscopicity test” value [2] does the source give for `Cc1ccc2c(Nc3cccc(Cl)c3F)nccc2c1NC(=O)c1csc2c(N)ncnc12` [Formula (I) bis-hydrogensulfate salt, 4-amino-N-(1-((3-chloro-2-fluorophenyl)amino)-6-methylisoquinolin-5-yl)thieno[3,2-d]pyrimidine-7-carboxamide] here?
Answer: 17.1%

Question: What about the “Water Content (%)” value [2] of the same compound?
Answer: 2.6%

Question: And the “Water Content (%)” value ([2]; listed as H2SO4)?
Answer: 2.6%

Question: What about the “H2O Solubility” value ([4]; listed as H2SO4) of the same compound?
Answer: 0.16 mg/mL

Question: Which “Purity(%) (A % by HPLC)” value ([9]; 2 weeks) does the source give for `Cc1ccc2c(Nc3cccc(Cl)c3F)nccc2c1NC(=O)c1csc2c(N)ncnc12` [Comparative Example 1, 4-amino-N-(1-((3-chloro-2-fluorophenyl)amino)-6-methylisoquinolin-5-yl)thieno[3,2-d]pyrimidine-7-carboxamide] here?
Answer: 99.5%

Question: And the “Total impurities(%) (A % by HPLC)” value ([9]; 2 weeks)?
Answer: 0.485%

Question: And the “Purity(%) (A % by HPLC)” value ([9]; 4 weeks)?
Answer: 99.3%

Question: And the “Total impurities(%) (A % by HPLC)” value ([9]; 4 weeks)?
Answer: 0.68%

Question: What about the “Purity(%) (A % by HPLC)” value ([9]; 1 day) of the same compound?
Answer: 99.7%

Question: What about the “Total impurities(%) (A % by HPLC)” value ([9]; 1 day) of the same compound?
Answer: 0.30%

Question: What about the “Purity(%) (A % by HPLC)” value ([9]; 3 days) of the same compound?
Answer: 99.7%

Question: What about the “Total impurities(%) (A % by HPLC)” value ([9]; 3 days) of the same compound?
Answer: 0.31%

Question: What about the “Purity(%) (A % by HPLC)” value ([9]; 7 days) of the same compound?
Answer: 99.6%

Question: What about the “Total impurities(%) (A % by HPLC)” value ([9]; 7 days) of the same compound?
Answer: 0.38%

Question: What about the “Purity(%) (A % by HPLC)” value ([9]; Initial) of the same compound?
Answer: 99.7%

Question: And the “Total impurities(%) (A % by HPLC)” value ([9]; Initial)?
Answer: 0.32%

Question: And the “physicochemical stability (summary in words)” value ([9]; listed as amorphous form)?
Answer: change of purity after 7 days
